Reference: US12344614B2, “Benzodiazepine derivatives as GABA a GAMMA1 PAM” (Hoffmann-La Roche Inc., priority 2021, dated 2025)
Like-named read-outs stand apart in the source and are kept apart here.

Columns and labels:
[1] = target: human GABAA α2β2γ1 receptor (Homo sapiens (Human), UniProt P47869+Q8N1C3); assay: Radioligand binding assay, competition for [3H]RO7239181, membranes from HEK293F cells
Description: (§1) The affinity of compounds at GABAA γ1 subunit-containing receptors was measured by competition for [^3H]RO7239181 (67.3 Ci/mmol; Roche) binding to membranes from HEK293F cells (ThermoFisher R79007) expressing human (transiently transfected) receptors of composition α5β2γ1, α2β2γ1, α1β2γ1.
(§2) Harvested pellets from HEK293F cells expressing the different GABAA receptor subtypes were resuspended in Mannitol Buffer pH 7.2-7.4 (Mannitol 0.29M, Triethylamine 10 mM, Acetic acid 10 mM, EDTA 1 mM plus protease inhibitors (20 tablets Complete, Roche Diagnostics Cat. No. 05 056 489 001 per liter)), washed two times and then resuspended at 1:10 to 1:15 dilution in the same buffer. Cell disruption was performed by stirring the suspension in a Parr vessel #4637 at 435 psi for 15 minutes, and then the suspensions were centrifuged at 1000×g for 15 minutes at 4° C. (Beckman Avanti J-HC; rotor JS-4.2). The supernatant (S1) was transferred in a 21 Schott flask and the pellet (P1) was resuspended with Mannitol Buffer up to 175 ml. The resuspended pellet was transferred into a 250 ml Corning centrifugal beaker and centrifuged at 1500×g for 10 minutes at 4° C. (Beckman Avanti J-HC; rotor JS-4.2). The supernatant (S1) was then transferred in the 21 Schott flask and the pellet was discarded. The supernatants (S1) were centrifuged in 500 ml Beckman polypropylene centrifugal beaker at 15′000×g for 30 minutes at 4° C. (Beckman Avanti J-20 XP; rotor JLA-10.500). The pellet (P2) was resuspended with Mannitol Buffer 1:1 and frozen at −80° C. The supernatant (S2) was centrifuged in 100 ml Beckman polypropylene centrifugal tubes at 48000×g for 50 minutes at 4° C. (Beckman Avanti J-20 XP; rotor JA-18). The supernatant (S3) was discarded and the pellet (P3) was resuspended with 1:1 Mannitol Buffer. The P2 and P3 protein concentration was determined with the BIORAD Standard assay method with bovine serum albumin as standard and measured on the NANO-Drop 1000. The membrane suspension was aliquots (500 μl per tube) and stored at −80° C. until required.
(§3) Membrane homogenates were resuspended and polytronised (Polytron PT1200E Kinematica AG) in Potassium Phosphate 10 mM, KCl 100 mM binding buffer at pH 7.4 to a final assay concentration determined with a previous experiment.
(§4) Assays were incubated to equilibrium for 1 hour at 4° C. and then, membranes were filtered onto unifilter (96-well white microplate with bonded GF/C filters preincubated 20-50 minutes in 0.3% Polyethylenimine) with a Filtermate 196 harvester (Packard BioScience) and washed 4 times with cold Potassium Phosphate 10 mM pH 7.4, KCl 100 mM binding buffer. After anhydrousing, filter-retained radioactivity was detected by liquid scintillation counting. Ki values were calculated using Excel-Fit (Microsoft) and are the means of two determinations.

[2] = target: human GABAA α5β2γ1 receptor (Homo sapiens (Human), UniProt P31644+Q8N1C3); assay: as above
Description: as §1, with “α1β2γ1. For better protein expression of the α2 subunit-containing receptors, the 28 amino acid long signal peptide (Met1 to Ala28) of the human GABAA α2 subunit was substituted by the 31 amino acid long signal peptide (Met1 to Ser31) of human GABAA α5 subunit.” for “α1β2γ1.”
as §2, §3
as §4, with “Radioligand binding assays were carried out in a volume of 200 μL (96-well plates) which contained 100 μL of cell membranes, [^3H]RO7239181 at a concentration of 1.5 nM (α5β2γ1) or 20-30 nM (α1β2γ1, α2β2γ1) and the test compound in the range of [0.3-10000]×10^−9 M. Nonspecific binding was defined by 10×10^−6 (α5β2γ1) and 30×10^−6 M RO7239181 and typically represented less than 5% (α5β2γ1) and less than 20% (α1β2γ1, α2β2γ1) of the total binding. Assays” for “Assays”
Representative test results, obtained by the above described assay measuring binding affinity to HEK293 cells expressing human (h) receptors, are shown in the Table 1.

[3] = target: human GABAA α1β3γ2 receptor (Homo sapiens (Human), UniProt P14867+P18507); assay: Radioligand binding assay, competition for [3H]Flumazenil, HEK293F cells; conditions: for γ2/γ1 Selectivity Ratio: Ki α1β3γ2 (nM)/Ki α2β2γ1 (nM); for LogSel: Log[Ki α1β3γ2 (nM)/Ki α2β2γ1 (nM)]
Description: The affinity of compounds at GABAA γ2 subunit-containing receptors was measured by competition for [^3H]Flumazenil (81.1 Ci/mmol; Roche) binding to HEK293F cells expressing human (transiently transfected) receptors of composition α1β3γ2.
Harvested pellets from HEK293F cells expressing the different GABAA γ2 receptor subtypes were resuspended in Mannitol Buffer pH 7.2-7.4 and processed as described above for the cells expressing the GABAA γ1 subunit-containing receptors.
Assays were incubated to equilibrium for 1 hour at 4° C. and harvested onto GF/C uni-filters (Packard) by filtration using a Packard harvester and washing with ice-cold wash buffer (50 mM Tris; pH 7.5). After anhydrousing, filter-retained radioactivity was detected by liquid scintillation counting. Ki values were calculated using Excel-Fit (Microsoft) and are the means of two determinations.

[4] = read-out: Ki h-GABAA α2β2γ1, [3H]RO7239181 20-30 nM, HEK293F membranes, 1 hour at 4° C., mean of two determinations

Compound	Ki [1] [nM]	Ki [1, 4] [nM]	Ki [2] [nM]	Ki [3] [nM]	γ2/γ1 Selectivity Ratio [3]	LogSel [3]
C[C@@H]1N=C(c2nc(O)ccc2F)c2c(ccc(C(F)(F)F)c2Cl)-n2c1nc1c2CCC1 [Example 24, 6-[(10S)-6-chloro-10-methyl-5-(trifluoromethyl)-1,9,12-triazatetracyclo[9.6.0.02,7.013,17]heptadeca-2(7),3,5,8,11,13(17)-hexaen-8-yl]-5-fluoro-pyridin-2-ol]	6.61	6.61	8.6	4190	634.3	2.80
Oc1ccc(F)c(C2=NCc3nncn3-c3ccc(C(F)(F)F)c(Cl)c32)c1 [Example 10, 3-[7-chloro-8-(trifluoromethyl)-4H-[1,2,4]triazolo[4,3-a][1,4]benzodiazepin-6-yl]-4-fluoro-phenol]	1.04	1.04	0.27	89.9	86.5	1.94
Cc1ccc2c(c1Cl)C(c1cc(O)ccc1F)=NCC(=O)N2C [Example 2, 6-chloro-5-(2-fluoro-5-hydroxy-phenyl)-1,7-dimethyl-3H-1,4-benzodiazepin-2-one]	1.49	1.49	0.53	58.2	–	1.59
Cc1nc2n(n1)-c1ccc(C(F)(F)F)c(Cl)c1C(c1nc(O)ccc1F)=N[C@H]2C [Example 25, 6-[(4S)-7-chloro-2,4-dimethyl-8-(trifluoromethyl)-4H-[1,2,4]triazolo[1,5-a][1,4]benzodiazepin-6-yl]-5-fluoro-pyridin-2-ol]	10.9	10.9	2.32	10600	977.2	2.99
Cc1nnc2n1-c1ccc(C(F)(F)F)c(Cl)c1C(c1cc(O)ccc1F)=N[C@H]2C [Example 17, 4-fluoro-3-[(4S)-7-chloro-1,4-dimethyl-8-(trifluoromethyl)-4H-[1,2,4]triazolo[4,3-a][1,4]benzodiazepin-6-yl]phenol]	1.75	1.75	0.99	68.8	39.3	1.59
Cc1nnc2n1-c1ccc(Cl)c(Cl)c1C(c1cc(O)ccc1F)=NC2 [Example 3, 3-(7,8-dichloro-1-methyl-4H-[1,2,4]triazolo[4,3-a][1,4]benzodiazepin-6-yl)-4-fluoro-phenol]	1.45	1.45	0.36	34.3	23.7	1.37
C[C@@H]1N=C(c2nc(O)ccc2F)c2c(ccc(C(F)(F)F)c2Cl)-n2cc(C(=O)N3CCC3)nc21 [Example 30, azetidin-1-yl-[(4S)-7-chloro-6-(3-fluoro-6-hydroxy-2-pyridyl)-4-methyl-8-(trifluoromethyl)-4H-imidazo[1,2-a][1,4]benzodiazepin-2-yl]methanone]	46.3	46.3	8.77	13000	280.8	2.45
O=c1ccn2c(n1)CN=C(c1cc(O)ccc1F)c1c-2ccc(C(F)(F)F)c1Cl [Example 11, 8-chloro-7-(2-fluoro-5-hydroxy-phenyl)-9-(trifluoromethyl)-5H-pyrimido[1,2-a][1,4]benzodiazepin-3-one]	1.88	1.88	1.54	359	191.3	2.28
Cc1cnc2n1-c1ccc(C(F)(F)F)c(Cl)c1C(c1nc(O)ccc1F)=N[C@H]2C [Example 23, 6-[(4S)-7-chloro-1,4-dimethyl-8-(trifluoromethyl)-4H-imidazo[1,2-a][1,4]benzodiazepin-6-yl]-5-fluoro-pyridin-2-ol]	8.88	8.88	3.08	8010	902.4	2.96
CN1C(=O)CN=C(c2c(F)ccc(O)c2F)c2c1ccc(Cl)c2Cl [Example 12, 6,7-dichloro-5-(2,6-difluoro-3-hydroxy-phenyl)-1-methyl-3H-1,4-benzodiazepin-2-one]	2.12	2.12	0.46	371	175.4	2.24
C[C@@H]1N=C(c2cc(O)ccc2F)c2c(ccc(Cl)c2Cl)-n2ccc(=O)nc21 [Example 5, (5S)-8,9-dichloro-7-(2-fluoro-5-hydroxy-phenyl)-5-methyl-5H-pyrimido[1,2-a][1,4]benzodiazepin-3-one]	1.4	1.4	0.39	255	182.4	2.26
Cc1cn2c(n1)[C@H](C)N=C(c1nc(O)ccc1F)c1c-2ccc(C(F)(F)F)c1Cl [Example 28, 6-[(4S)-7-chloro-2,4-dimethyl-8-(trifluoromethyl)-4H-imidazo[1,2-a][1,4]benzodiazepin-6-yl]-5-fluoro-pyridin-2-ol]	5.28	5.28	2.07	4080	772.7	2.89
Cc1nc2n(n1)-c1ccc(C(F)(F)F)c(Cl)c1C(c1nc(O)ccc1Cl)=N[C@H]2C [Example 29, 5-chloro-6-[(4S)-7-chloro-2,4-dimethyl-8-(trifluoromethyl)-4H-[1,2,4]triazolo[1,5-a][1,4]benzodiazepin-6-yl]pyridin-2-ol]	7.7	7.7	3.63	12000	1557.5	3.19
O=c1ccn2c(n1)CN=C(c1c(F)ccc(O)c1F)c1c-2ccc(Cl)c1Cl [Example 14, 8,9-dichloro-7-(2,6-difluoro-3-hydroxy-phenyl)-5H-pyrimido[1,2-a][1,4]benzodiazepin-3-one]	4.67	4.67	0.85	74.6	16.0	1.20
